From ChEMBL document CHEMBL1155874, “Carbonic anhydrase activators: Activation of the human cytosolic isozyme III and membrane-associated isoform IV with amino acids and amines” (Bioorg Med Chem Lett, 2008)

target: Carbonic anhydrase 1 (Homo sapiens) (UniProt P00915); assay: Activation of human recombinant CA1 at 10 uM by stopped-flow CO2 hydration method
Sequence (P00915 2-261 limits assumed): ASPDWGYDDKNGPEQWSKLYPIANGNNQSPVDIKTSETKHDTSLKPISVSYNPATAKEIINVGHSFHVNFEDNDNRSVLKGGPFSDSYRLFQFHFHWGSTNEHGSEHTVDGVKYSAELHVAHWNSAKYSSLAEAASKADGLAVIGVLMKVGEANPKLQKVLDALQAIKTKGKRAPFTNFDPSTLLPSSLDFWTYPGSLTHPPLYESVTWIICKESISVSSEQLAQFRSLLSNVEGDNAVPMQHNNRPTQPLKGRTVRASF

Chain of Carbonic anhydrase 1 (Homo sapiens), P00915 (P00915 whole entry): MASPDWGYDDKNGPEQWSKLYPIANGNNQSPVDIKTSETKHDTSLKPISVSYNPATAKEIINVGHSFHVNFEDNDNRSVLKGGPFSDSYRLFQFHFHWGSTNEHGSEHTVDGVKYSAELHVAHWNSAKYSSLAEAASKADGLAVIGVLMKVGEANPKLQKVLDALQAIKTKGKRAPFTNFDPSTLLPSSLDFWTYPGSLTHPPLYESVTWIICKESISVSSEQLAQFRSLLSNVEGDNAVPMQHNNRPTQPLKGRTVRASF

Q: For NCCc1c[nH]cn1, which Ka is on record?
A: 2.1 µM

Q: How did the Ka turn out when CNCC(O)c1ccc(O)c(O)c1 (single isomer, unassigned) was run?
A: 0.09 µM

target: Carbonic anhydrase 4 (Homo sapiens) (UniProt P22748); assay: Activation of human recombinant truncated CA4 at 10 uM by stopped-flow CO2 hydration method
Sequence (P22748 whole entry, the tested form may be a part): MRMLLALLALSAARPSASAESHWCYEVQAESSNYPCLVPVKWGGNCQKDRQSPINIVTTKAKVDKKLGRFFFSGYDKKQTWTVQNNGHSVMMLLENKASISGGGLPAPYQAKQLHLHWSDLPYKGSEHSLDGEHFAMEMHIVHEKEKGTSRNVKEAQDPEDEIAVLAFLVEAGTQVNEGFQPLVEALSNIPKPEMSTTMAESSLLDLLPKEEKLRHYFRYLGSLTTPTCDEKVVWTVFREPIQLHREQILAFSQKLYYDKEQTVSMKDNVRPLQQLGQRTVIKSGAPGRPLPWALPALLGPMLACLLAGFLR

Q: For N[C@@H](Cc1ccc(O)cc1)C(=O)O, which Ka is on record?
A: 25.1 µM

Q: N[C@H](Cc1c[nH]c2ccccc12)C(=O)O was tested. Which Ka did it give?
A: 39.6 µM

Q: NCCN1CCNCC1 was tested. Which Ka did it give?
A: 24.9 µM

Q: N[C@@H](Cc1c[nH]c2ccccc12)C(=O)O was tested. Which Ka did it give?
A: 37.1 µM

Q: How did the Ka turn out when NCCc1ccc(O)c(O)c1 was run?
A: 30.9 µM

Q: How did the Ka turn out when N[C@H](Cc1ccc(O)c(O)c1)C(=O)O was run?
A: 34.7 µM

Q: For NCCc1c[nH]c2ccc(O)cc12, which Ka is on record?
A: 3.14 µM

Q: NCCc1c[nH]cn1 was tested. Which Ka did it give?
A: 25.3 µM

Q: How did the Ka turn out when Nc1ccc(C[C@H](N)C(=O)O)cc1 was run?
A: 0.079 µM

Q: How did the Ka turn out when N[C@@H](Cc1ccc(O)c(O)c1)C(=O)O was run?
A: 15.3 µM

Q: For NCCN1CCOCC1, which Ka is on record?
A: 1.3 µM

Q: Which Ka does the source give for NCc1ccccn1 here?
A: 5.19 µM

Q: Which Ka does the source give for N[C@H](Cc1c[nH]cn1)C(=O)O here?
A: 12.3 µM

Q: How did the Ka turn out when N[C@@H](Cc1c[nH]cn1)C(=O)O was run?
A: 7.3 µM

Q: For CNCC(O)c1ccc(O)c(O)c1 (single isomer, unassigned), which Ka is on record?
A: 45 µM

Q: For NCCc1ccccn1, which Ka is on record?
A: 7.13 µM

tested on: N[C@H](Cc1c[nH]cn1)C(=O)O; assay: (§1) Activity of human recombinant CA1 at 10 uM by stopped-flow CO2 hydration method

Q: How did the kcat turn out when “Carbonic anhydrase 1 (Homo sapiens), P00915” was run?
A: 9.1 ×10⁵ /s

tested on: N[C@@H](Cc1c[nH]cn1)C(=O)O; assay: as §1

Q: Which kcat does the source give for “Carbonic anhydrase 1 (Homo sapiens), P00915” here?
A: 13.4 ×10⁵ /s

tested on: N[C@H](Cc1c[nH]cn1)C(=O)O; assay: (§2) Activity of human recombinant CA2 at 10 uM stopped-flow CO2 hydration method

Q: Which kcat does the source give for “Carbonic anhydrase 2 (Homo sapiens) (from UniProt P00918)” here?
A: 2.7 ×10⁶ /s

tested on: N[C@@H](Cc1c[nH]cn1)C(=O)O; assay: as §2

Q: “Carbonic anhydrase 2 (Homo sapiens) (from UniProt P00918)” was tested. Which kcat did it give?
A: 4.3 ×10⁶ /s

target: Carbonic anhydrase 3 (Homo sapiens) (UniProt P07451); assay: Activation of human recombinant CA3 at 10 uM by stopped-flow CO2 hydration method
Sequence (P07451 whole entry): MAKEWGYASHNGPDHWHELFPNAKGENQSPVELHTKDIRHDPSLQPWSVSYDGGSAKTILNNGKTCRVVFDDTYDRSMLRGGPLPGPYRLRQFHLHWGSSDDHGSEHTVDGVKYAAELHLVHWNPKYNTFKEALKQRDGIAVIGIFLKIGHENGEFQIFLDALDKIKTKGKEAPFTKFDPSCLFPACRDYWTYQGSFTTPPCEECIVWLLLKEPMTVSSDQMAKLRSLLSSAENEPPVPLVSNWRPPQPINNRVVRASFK

Q: With N[C@@H](Cc1ccc(O)cc1)C(=O)O as the molecule, how does the Ka read?
A: 34.1 µM

Q: N[C@H](Cc1c[nH]c2ccccc12)C(=O)O was tested. Which Ka did it give?
A: 19 µM

Q: With NCCN1CCNCC1 as the molecule, how does the Ka read?
A: 0.32 µM

Q: For N[C@@H](Cc1c[nH]c2ccccc12)C(=O)O, which Ka is on record?
A: 20.5 µM

Q: With NCCc1ccc(O)c(O)c1 as the molecule, how does the Ka read?
A: 33.2 µM

Q: For N[C@H](Cc1ccc(O)c(O)c1)C(=O)O, which Ka is on record?
A: 28.7 µM

Q: NCCc1c[nH]c2ccc(O)cc12 was tested. Which Ka did it give?
A: 0.78 µM

Q: Which Ka does the source give for NCCc1c[nH]cn1 here?
A: 36.9 µM

Q: Nc1ccc(C[C@H](N)C(=O)O)cc1 was tested. Which Ka did it give?
A: 43.2 µM

Q: Which Ka does the source give for N[C@@H](Cc1ccc(O)c(O)c1)C(=O)O here?
A: 13.5 µM

Q: With NCCN1CCOCC1 as the molecule, how does the Ka read?
A: 0.091 µM

Q: How did the Ka turn out when NCc1ccccn1 was run?
A: 1.03 µM

Q: With N[C@H](Cc1c[nH]cn1)C(=O)O as the molecule, how does the Ka read?
A: 1.12 µM

Q: How did the Ka turn out when N[C@@H](Cc1c[nH]cn1)C(=O)O was run?
A: 35.9 µM

Q: With CNCC(O)c1ccc(O)c(O)c1 (single isomer, unassigned) as the molecule, how does the Ka read?
A: 36.4 µM

Q: Which Ka does the source give for NCCc1ccccn1 here?
A: 1.1 µM

target: Carbonic anhydrase 2 (Homo sapiens) (UniProt P00918); assay: Activation of human recombinant CA2 at 10 uM by stopped-flow CO2 hydration method

Q: With CNCC(O)c1ccc(O)c(O)c1 (single isomer, unassigned) as the molecule, how does the Ka read?
A: 96 µM
